Tested on: cultured rat hippocampal neurons expressing GFP-tagged P301S tau
Assay: Accumulation of P301S tau in dendritic spines of cultured hippocampal neurons
Type: cell-based
Settings: 10 μM for 3 days
Description: The disproportionate accumulation in dendritic spines of mutant tau linked to FTDP-17 depends upon tau-truncation by Casp2 (Zhao X, et al., Nat Med., 2016, 22, 1268-76). […] The P301S tau mutation linked to FTDP-17 (Bugiani O, et al., J Neuropathol Exp Neurol., 1999, 58, 667-677; and Lossos A, et al., J Neurol., 2003, 250, 733-740) was examined to determine whether Compound 1 could prevent the accumulation of tau in dendritic spines. Dissociated hippocampal neurons from postnatal day 0-1 rat pups were cultured. After 5-7 days in vitro (DIV), the neurons were co-transfected with plasmids encoding DsRed (to label neuronal morphology) and GFP-tagged wild-type or P301S mutant tau proteins (FIG. 2A), as previously described (Hoover B R, et al., Neuron., 2010, 68:1067-1081). Neurons at 17-18 DIV were incubated with 10 μM Compound 1 for 3 days and live neurons were imaged at 20-21 DIV.
For all cultured hippocampal neuron studies all human tau and DsRed constructs were expressed in the pRK5 vector and driven by the cytomegalovirus promoter (Clontech Inc.). Human tau proteins were N-terminally fused to enhance GFP (eGFP). The wild-type, native human tau construct encoded human four-repeat tau lacking the transcriptional-variant N-terminal sequences (0N4R) and contained exons 1, 4, 5, 7, 9-13, 14, and intron 13 (RRID: Addgene_46904). […]

Cc1ccc2c(c1)CCN(C(=O)[C@@H](NC(=O)[C@H](CCCC(=O)O)NC(=O)C1Cc3ccccc3N1)C(C)C)[C@@H]2C(=O)N[C@H](C#N)CC(=O)O (stereo partly drawn) [Compound 1, (8)-6-(((S)-1-((8)-1-(((S)-2-carboxy-1-cyanoethyl)carbamoyl)-6-methyl-3,4-dihydroisoquinolin-2(1H)-yl)-3-methyl-1-oxobutan-2-yl)amino)-5-((S)-indoline-2-carboxamido)-6-oxohexanoic acid]
density of dendritic spines (compared with untreated wild-type and P301S tau groups): no significant differences
percentage of dendritic spines containing GFP-tagged tau (neurons expressing P301S tau, untreated P301S 75.5%, wild-type tau 21.9%): 24.8%

From patent US20250188123A1, “PROTEASE INHIBITORS” (Regents of the University of Minnesota, priority 2022, published 2025)
